Earlier results, collected in patent US20230243813A1, “METHODS FOR SELECTING AND TREATING CANCER WITH FGFR3 INHIBITORS” (GENECENTRIC THERAPEUTICS, INC., priority 2020, published 2023).
Read-outs that look alike come from different tables or passages of the source.

Tested on: bladder cancer cell lines
Conditions: GDSC1/GDSC2 IC50 data, RNA-seq and Affymetrix U219 expression, FAS-1 to FAS-4 scores

sensitivity (IC50) of samples identified as altered by the FAS classifiers | sensitivity (IC50) of samples identified as altered by the FAS classifiers (listed as BIBF) | Structure (SMILES)
high sensitivity | showed samples with sensitivity | COC(=O)c1ccc2c(c1)NC(=O)/C2=C(\Nc1ccc(N(C)C(=O)CN2CCN(C)CC2)cc1)c1ccccc1 [BIBF 1120, nintedanib]
showed samples with sensitivity |  | COc1cc2c(Oc3ccc(NC(=O)C4(C(=O)Nc5ccc(F)cc5)CC4)cc3F)ccnc2cc1OCCCN1CCOCC1 [foretinib, Foretinib]
